This is an account of results in BindingDB's records for doi:10.7270/Q2DV1HH8 (Burnham Center For Chemical Genomics, 2012).

Usually IC50 stands for the concentration at which inhibition is half-maximal. Read a high IC50 as a need for much substance.

“And” between values parts separate entries of the source, which are not always exact repeats. Equal entries are not always repeated. Structures can show the parent of a compound that is named as a salt. Numbered stars: 1 amine (or outer) side, 2 acyl side, 3 side chain; on linkers, the order of the positions; unused ones are H or OH. Bridge positions count the residues as written; N and C are the ends. Square brackets hold non-standard residues; d marks the D form. Peptide text beside a SMILES is read from it. ξ: configuration not given here. X1 = CC[C@H](CCC[C@@H](O)[C@@H](C)C(=O)O[C@H](C)[C@@H](C)C/C=C(C)\C(=C/C(=O)[*:1])OC)O[*:2]; NMeξIle = CC[C@H](C)C(NC)C(=O)O; NMeV = CN[C@H](C(=O)O)C(C)C; NMeS = CN[C@@H](CO)C(=O)O

One assay has as its target T1, Protein skinhead-1 (Caenorhabditis elegans, UniProt P34707).
T1 sequence (P34707 whole entry): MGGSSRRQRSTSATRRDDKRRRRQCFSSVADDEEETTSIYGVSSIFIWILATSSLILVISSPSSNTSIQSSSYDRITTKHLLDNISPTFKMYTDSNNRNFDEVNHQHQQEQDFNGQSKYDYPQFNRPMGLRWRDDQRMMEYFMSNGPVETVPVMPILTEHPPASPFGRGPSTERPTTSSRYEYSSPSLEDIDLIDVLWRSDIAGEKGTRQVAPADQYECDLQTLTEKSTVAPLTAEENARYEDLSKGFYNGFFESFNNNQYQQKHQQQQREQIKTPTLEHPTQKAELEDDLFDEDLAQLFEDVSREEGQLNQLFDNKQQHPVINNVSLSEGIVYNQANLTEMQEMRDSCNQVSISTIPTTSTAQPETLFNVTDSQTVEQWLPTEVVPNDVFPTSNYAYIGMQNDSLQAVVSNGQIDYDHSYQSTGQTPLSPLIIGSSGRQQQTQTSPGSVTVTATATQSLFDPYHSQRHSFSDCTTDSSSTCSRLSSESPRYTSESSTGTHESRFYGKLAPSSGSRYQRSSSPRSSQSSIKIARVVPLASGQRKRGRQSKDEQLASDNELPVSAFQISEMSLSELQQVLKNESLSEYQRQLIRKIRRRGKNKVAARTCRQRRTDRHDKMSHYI
Details: not given
With `O=C(CC=Nc1ccc(Br)cc1F)c1ccco1` [SMR000293180], the IC50 turned out to be 2.19 µM. Still for that read-out and setting: the result for `CCOC(=O)c1c(C)oc2c(F)c(F)c(F)c(F)c2c1=O` [SMR000041624] reads 45.5 µM; that for `CN(C)c1ccc(N=CCC(=O)c2ccco2)cc1`, 70.5 µM. Same read-out and setting: in the case of `O=C(CC=Nc1ccc(Br)cc1)c1cccnc1` [SMR000225438] it was 68.9 µM; in that of `O=C(c1ccco1)C(C=Nc1ccc(Br)cc1)C(=O)C(F)(F)F` (stereo unspecified) [2-{[(4-bromophenyl)amino]methylene}-4,4,4-trifluoro-1-(2-furyl)-1,3-butanedione], 21 µM. The same measure, in the same setting: the result for `Cc1ccc(N=CCC(=O)c2cccs2)cc1` [3-[(4-methylphenyl)amino]-1-(2-thienyl)-2-propen-1-one] reads 60.3 µM; that for `CC[C@@H]1CCC[C@@H](O)[C@@H](C)C(=O)O[C@H](C)[C@@H](C)C/C=C(C)\C(OC)=C/C(=O)N(C)C([C@@H](C)CC)C(=O)N(C)[C@@H](C(C)C)C(=O)N(C)[C@@H](COC)C(=O)N2CCC[C@H]2C(=O)N(C)[C@@H](C(C)C)C(=O)N2CCC[C@H]2C(=O)O1` (stereo partly specified) [MLS003235796] ([NMeξIle][NMeV][NMeS](Me)P[NMeV]P; linker N-C via X1), 82.4 µM; that for `COC(=O)c1cc(=O)nc2sccn12`, 21.9 µM. On to `COC(=O)[C@]12OC[C@]34[C@H]([C@@H](O)[C@@H]1O)[C@@]1(C)CC(=O)C(=O)C(C)[C@@H]1C[C@H]3OC(=O)[C@H](OC(=O)/C=C(\C)C(C)C)[C@@H]24` (stereo partly drawn) [10,15,16-trihydroxy-9,13-dimethyl-17-methyloxycarbonyl-4,11-dioxo-(1R,2S,3R,6R,8R,13S,14R,15R,16S,17R)-5,18-dioxapentacyclo[12.5.0.01,6.02,17.08,13]nonadec-9-en-3-yl 3,4-dimethyl-(E)-2-pentenoate], for which the IC50 is 75.3 µM. The same measure, in the same setting: the result for `O=C(C=Cc1ccc(Br)cc1)c1ccc(N=C2NCCCS2)cc1` [MLS000391412] reads 18.3 µM; that for `CC1CCCCN1Cc1c(O)ccc2c(=O)c(-c3nc4ccccc4s3)c(N)oc12` (stereo unspecified) [SMR000218869], 6.82 µM. The same measure, in the same setting: the result for `C=c1[nH]n(-c2ccccc2)c(=O)c1=CC=C1N(C)c2ccccc2C1(C)C` [SMR000175131] reads 87.3 µM and 14.4 µM.

In turn, `Nc1ccc(/C=C2\C=Cc3ccccc32)cc1` came in with an IC50 of 45 µM. This lies in the double-digit micromolar range.

`O=C(CC=Nc1ccc(F)cc1F)c1cccs1` [(E)-3-[[2,4-bis(fluoranyl)phenyl]amino]-1-thiophen-2-yl-prop-2-en-1-one] gave an IC50 of 5.04 µM.

In the case of `O=C1C=CC(=O)c2c(O)c(N3CCN(CCOCCO)CC3)c(Br)c(O)c21` [6-bromo-5,8-dihydroxy-7-[4-[2-(2-hydroxyethoxy)ethyl]piperazin-1-yl]naphthalene-1,4-dione;hydrochloride], the midpoint of inhibition, the IC50, lay at 75.5 µM.

Regarding `O=C(CC=Nc1ccc(F)c(Cl)c1)c1ccco1` [(E)-3-(3-chloro-4-fluoroanilino)-1-(furan-2-yl)prop-2-en-1-one], the concentration for half-maximal inhibition (IC50) turned out to be 16.7 µM. On the same count and under the same terms, in the case of `Cc1ccc2nc(-c3cccnc3)c(NC3CCCCC3)n2c1` it was 23.5 µM. On the same count and under the same terms, the result for `Cc1ccc(Cl)c(N=CCC(=O)c2ccccc2)c1` [(E)-3-[(2-chloranyl-5-methyl-phenyl)amino]-1-phenyl-prop-2-en-1-one] reads 68.8 µM; that for `O=C1C2=CCC=CC2Oc2ccc(Br)cc21` (stereo unspecified) [SMR000327218], greater than 100 µM; that for `O=C1N[C@@H]2C(=C[C@H](O)[C@@H](O)[C@H]2O)c2cc3c(c(O)c21)OCO3` [(2S,3R,4S,4aR)-2,3,4,7-Tetrahydroxy-3,4,4a,5-tetrahydro-2H-[1,3]dioxolo[4,5-j]phenanthridin-6-one], 51.4 µM.

Compound `O=C(CC=Nc1ccc(F)cc1F)c1ccco1` [(E)-3-(2,4-difluoroanilino)-1-(2-furanyl)-2-propen-1-one] returned an IC50 of 22.7 µM. Same read-out and setting: the result for `O=C(/N=C1\[N-]c2ccc(Br)c[n+]2Cc2ccccc21)c1ccc([N+](=O)[O-])cc1[N+](=O)[O-]` [N-(2-bromanyl-11H-pyrido[1,2-b][2,4]benzodiazepin-6-ylidene)-2,4-dinitro-benzamide] reads 2.78 µM; that for `Cc1ccc(N=CC(C(=O)c2ccco2)C(=O)C(F)(F)F)cc1Cl` (stereo unspecified) [2-{[(3-chloro-4-methylphenyl)amino]methylene}-4,4,4-trifluoro-1-(2-furyl)-1,3-butanedione], 14.3 µM. In turn, `O=C(CC=Nc1ccccn1)c1ccccc1` [(Z)-1-phenyl-3-(pyridin-2-ylamino)prop-2-en-1-one] showed an IC50 of 53.7 µM. Same read-out and setting: in the case of `Cc1cc(C)c2ccc3c(C)c(C)[nH]c3c2n1` [MLS000729064] it was 41.1 µM; in that of `O=C1/C(=C/c2ccccn2)CCc2ccccc21`, 78.5 µM; in that of `O=C(CC=Nc1ccc(F)c(F)c1)c1cccs1` [3-[(3,4-difluorophenyl)amino]-1-(2-thienyl)-2-propen-1-one], 11.4 µM.

The compound `O=C(CC=Nc1ccccc1F)c1cccs1` [(E)-3-[(2-fluorophenyl)amino]-1-thiophen-2-yl-prop-2-en-1-one] had an IC50 of 27.9 µM. Take `O=C(CC=Nc1cccc(F)c1)c1cccs1`: it took 46.7 µM to reach half-maximal inhibition (IC50).

Staying with this assay, now noted: inactive by the depositor's call.
`Cc1cccc(C=CC(=O)c2ccc(N=C3NCCCS3)cc2)c1` [(E)-1-[4-(5,6-dihydro-4H-1,3-thiazin-2-ylamino)phenyl]-3-(3-methylphenyl)prop-2-en-1-one] registered a half-inhibitory concentration (IC50) of 79.9 µM. In turn, `Cn1ccs/c1=N/C(=O)c1ccc(OC(F)(F)F)cc1` [SMR000589314] showed an IC50 of 61.9 µM.
